Data on 21 compounds can be found in US12606541B2, “PPARg modulators and methods of use” (Eisai R&D Management Co., Ltd., priority 2020, dated 2026).

Read-outs that look alike come from different tables or passages of the source.

Test [1] deals with T1, His6-TEV-PPARγ-(234-505) (Homo sapiens, UniProt P37231).
T1 construct: The His6-TEV-PPARγ-(234-505) protein for assay was expressed and purified; TEV cleavage site (N); made in house
T1 sequence (P37231 234-505): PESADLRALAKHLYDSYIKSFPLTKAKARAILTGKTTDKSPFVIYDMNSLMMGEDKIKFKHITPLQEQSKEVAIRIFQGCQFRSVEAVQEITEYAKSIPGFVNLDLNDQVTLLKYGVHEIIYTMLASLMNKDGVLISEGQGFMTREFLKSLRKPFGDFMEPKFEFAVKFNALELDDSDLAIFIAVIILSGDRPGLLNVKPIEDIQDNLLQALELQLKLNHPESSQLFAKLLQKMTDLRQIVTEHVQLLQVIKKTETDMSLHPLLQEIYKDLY
Kind of test: TR-FRET Assay to Measure Co-R Peptide Recruitment to PPARγ. The format is biochemical. Particulars: Co-R peptide (SMRT-ID2) recruitment; top final concentration 20 μM; read-out: TR-FRET i-Ag; AC50. In short, it runs like this:
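His-tagged PPARγ (or controls) was preincubated with compound for 20 minutes at room temperature, then 5 nM anti-His terbium antibody and 200 nM FITC-labeled SMRT-ID2 corepressor peptide (final) were added for a further hour. TR-FRET signal was normalized to percent response using 500 nM T0070907 and DMSO controls.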
In general terms: In TR-FRET formats the signal depends on donor and acceptor labels being close together.

Test [2] has as its system UM-UC-9 engineered cells. Kind of test: Cell proliferation / short-term viability assay, CellTiter-Glo 144 h. The test is classed as cell-based, human. Particulars: read-out: CTGlo 144 h UMUC9.5, G150. In short, it runs like this:
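UM-UC-9 engineered assay-ready cells seeded at 500 cells/well in high-glucose DMEM/10% FBS, treated from dose-response plates, grown at 37° C, 5% CO2. CellTiter-Glo 2.0 luminescence read on day 7, with a day-0 pretreatment plate as T0 reference and DMSO wells as negative control.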
In general terms: ATP-based viability assays read luminescence as a measure of living cells.

Take `COc1cc(-c2cc(C(=O)N3CCC(C(=O)NC4CC(C)(F)C4)CC3)n[nH]2)c(Cl)cn1` (mixture of isomers) [Example 246, 1-(5-(5-chloro-2-methoxypyridin-4-yl)-1H-pyrazole-3-carbonyl)-N-(3-fluoro-3-methylcyclobutyl)piperidine-4-carboxamide]: the AC50 in test [1] was 0.383 µM. The IC50 in test [2] (Homo sapiens, UM-UC-9, 144 h) is 1.23 µM.

For the compound `COc1cc(-c2cc(C(=O)N3CCC(C(=O)NCC4CCc5n[nH]cc5C4)CC34CC4)[nH]n2)c(F)cn1` (mixture of isomers) [Example 341, (S)-4-(3-(5-fluoro-2-methoxypyridin-4-yl)-1H-pyrazole-5-carbonyl)-N—(((R)-4,5,6,7-tetrahydro-2H-indazol-5-yl)methyl)-4-azaspiro[2.5]octane-7-carboxamide and (S)-4-(3-(5-fluoro-2-methoxypyridin-4-yl)-1H-pyrazole-5-carbonyl)-N—(((S)-4,5,6,7-tetrahydro-2H-indazol-5-yl)methyl)-4-azaspiro[2.5]octane-7-carboxamide], the AC50 in test [1] was found to be 0.005 µM. Besides, the IC50 in test [2] is 0.0103 µM.

Turning to `N#Cc1cc(-c2cc(C(=O)N3CCC(C(=O)NC4CCC(O)(C(F)(F)F)CC4)CC34CC4)n[nH]2)ncn1` (racemic) [Example 528, (R)-4-(5-(6-cyanopyrimidin-4-yl)-1H-pyrazole-3-carbonyl)-N-((1r,4R)-4-hydroxy-4-(trifluoromethyl)cyclohexyl)-4-azaspiro[2.5]octane-7-carboxamide and (S)-4-(5-(6-cyanopyrimidin-4-yl)-1H-pyrazole-3-carbonyl)-N-((1r,4S)-4-hydroxy-4-(trifluoromethyl)cyclohexyl)-4-azaspiro[2.5]octane-7-carboxamide], the AC50 in test [1] was 0.006 µM. Besides, the IC50 in test [2] came to 0.479 µM.

As to `COc1cc(-c2cc(C(=O)N3CCC(C(=O)NCc4ccc5[nH]nc(F)c5c4)CC3)n[nH]2)c(F)cn1` [Example 200, N-((3-fluoro-1H-indazol-5-yl)methyl)-1-(5-(5-fluoro-2-methoxypyridin-4-yl)-1H-pyrazole-3-carbonyl)piperidine-4-carboxamide], the AC50 in test [1] is 0.112 µM. Besides, in test [2] (Homo sapiens, UM-UC-9, 144 h), the IC50 was 0.0715 µM.

As for `COc1cc(-c2cc(C(=O)N3CCC(C(=O)NCC4CC(F)(F)C4)CC3)n[nH]2)c(Cl)cn1` [Example 148, 1-(5-(5-chloro-2-methoxypyridin-4-yl)-1H-pyrazole-3-carbonyl)-N-((3,3-difluorocyclobutyl)methyl)piperidine-4-carboxamide], the AC50 in test [1] came to 0.712 µM. Moreover, the IC50 in test [2] (Homo sapiens, UM-UC-9, 144 h) is 3.17 µM.

On to `COc1cc(-c2cc(C(=O)N3[C@@H]4CC[C@H]3C[C@@H](C(=O)NCc3cccc(Cl)c3)C4)n[nH]2)c(F)cn1` [Example 160-B, (1R,3r,5S)—N-(3-chlorobenzyl)-8-(5-(5-fluoro-2-methoxypyridin-4-yl)-1H-pyrazole-3-carbonyl)-8-azabicyclo[3.2.1]octane-3-carboxamide], for which, in test [1], the AC50 is 14.2 µM. Also, the IC50 in test [2] (Homo sapiens, UM-UC-9, 144 h) was above 10 µM.

Consider `COc1cc(-c2cc(C(=O)N3CCC(C(=O)NCC45CCC(O)(CC4)C5)CC34CC4)n[nH]2)c(F)cn1` (single isomer, unassigned) [Example 333-B], for which the AC50 in test [1] stood at 0.0067 µM. The IC50 in test [2] came out at 0.0332 µM.

In the case of `COc1cc(-c2cc(C(=O)N3CC[C@H](C(=O)NC4CCC5(CCCN5C5COC5)CC4)CC34CC4)n[nH]2)c(F)cn1` (stereo partly drawn) [Example 349, (S)-4-(5-(5-fluoro-2-methoxypyridin-4-yl)-1H-pyrazole-3-carbonyl)-N-(1-(oxetan-3-yl)-1-azaspiro[4.5]decan-8-yl)-4-azaspiro[2.5]octane-7-carboxamide], the AC50 in test [1] came out at 0.187 µM. Moreover, the IC50 in test [2] (Homo sapiens, UM-UC-9, 144 h) was 0.836 µM.

Regarding `COc1cc(-c2cc(C(=O)N3CCC(C(=O)NC(C)COc4ccc(Cl)cc4)CC3)n[nH]2)c(Cl)cn1` (stereo not drawn) [Example 142, 1-(5-(5-chloro-2-methoxypyridin-4-yl)-1H-pyrazole-3-carbonyl)-N-(1-(4-chlorophenoxy)propan-2-yl)piperidine-4-carboxamide], the AC50 in test [1] worked out at 0.903 µM. In addition, in test [2] (Homo sapiens, UM-UC-9, 144 h), the IC50 worked out at 3.14 µM.

Consider `COc1cc(-c2cc(C(=O)N3CCC(C(=O)NCc4cn5ccccc5n4)CC3)n[nH]2)c(Cl)cn1` [Example 119, 1-(5-(5-chloro-2-methoxypyridin-4-yl)-1H-pyrazole-3-carbonyl)-N-(imidazo[1,2-a]pyridin-2-ylmethyl)piperidine-4-carboxamide], for which, in test [1], the AC50 was found to be 0.337 µM. Also, the IC50 in test [2] (Homo sapiens, UM-UC-9, 144 h) is above 5 µM.

As for `COc1cc(-c2cc(C(=O)N3CCC(C(=O)NC4CC(N5CCC(F)(F)C5)C4(C)C)CC34CC4)n[nH]2)c(F)cn1` (single isomer, unassigned) [Example 355-B], the AC50 in test [1] worked out at 0.0094 µM. Further, the IC50 in test [2] worked out at 0.0033 µM.

`COc1cc(-c2cc(C(=O)N3CCC(C(=O)NCc4nccc(C(F)(F)F)n4)CC3)n[nH]2)c(Cl)cn1` [Example 209, 1-(5-(5-chloro-2-methoxypyridin-4-yl)-1H-pyrazole-3-carbonyl)-N-((4-(trifluoromethyl)pyrimidin-2-yl)methyl)piperidine-4-carboxamide]: the AC50 in test [1] turned out to be 0.319 µM. In addition, the IC50 in test [2] (Homo sapiens, UM-UC-9, 144 h) worked out at 2.37 µM.

For “(2S,4R)-1-(5-(5-fluoro-2-methoxypyridin-4-yl)-1H-pyrazole-3-carbonyl)-N-((1r,4R)-4-hydroxy-4-(trifluoromethyl)cyclohexyl)-2-(trifluoromethyl)piperidine-4-carboxamide and (2S,4S)-1-(5-(5-fluoro-2-methoxypyridin-4-yl)-1H-pyrazole-3-carbonyl)-N-((1r,4S)-4-hydroxy-4-(trifluoromethyl)cyclohexyl)-2-(trifluoromethyl)piperidine-4-carboxamide [Example 367]”, in test [1], the AC50 came out at 0.022 µM. The IC50 in test [2] amounted to 0.012 µM.

On to `COc1cc(-c2cc(C(=O)N3CCC(C(=O)NCc4c[nH]c5ccccc45)CC3)n[nH]2)c(Cl)cn1` [Example 181, N-((1H-indol-3-yl)methyl)-1-(5-(5-chloro-2-methoxypyridin-4-yl)-1H-pyrazole-3-carbonyl)piperidine-4-carboxamide], for which the AC50 in test [1] is 0.0562 µM. In addition, the IC50 in test [2] (Homo sapiens, UM-UC-9, 144 h) was determined as 0.0856 µM.

`COc1cc(-c2cc(C(=O)N3CC[C@H](C(=O)NC4CCN(c5ccc(C#N)nc5)C4)CC34CC4)n[nH]2)c(F)cn1` (stereo partly drawn) [Example 488, (7S)—N-(1-(6-cyanopyridin-3-yl)pyrrolidin-3-yl)-4-(5-(5-fluoro-2-methoxypyridin-4-yl)-1H-pyrazole-3-carbonyl)-4-azaspiro[2.5]octane-7-carboxamide]: in test [1], the AC50 was 0.0009 µM. The IC50 in test [2] (Homo sapiens, UM-UC-9, 144 h) was found to be 0.0066 µM.

For `COc1cc(-c2cc(C(=O)N3CCC(C(=O)NCc4cnc5c(cnn5C)c4)CC3)n[nH]2)c(Cl)cn1` [Example 232, 1-(5-(5-chloro-2-methoxypyridin-4-yl)-1H-pyrazole-3-carbonyl)-N-((1-methyl-1H-pyrazolo[3,4-b]pyridin-5-yl)methyl)piperidine-4-carboxamide], in test [1], the AC50 came to 0.516 µM. For the same compound, the IC50 in test [2] (Homo sapiens, UM-UC-9, 144 h) was 2.15 µM.

For the compound `COc1cc(-c2cc(C(=O)N3CCC(C(=O)NCc4cnc5[nH]ccc5c4)CC3)n[nH]2)c(Cl)cn1` [Example 168, N-((1H-pyrrolo[2,3-b]pyridin-5-yl)methyl)-1-(5-(5-chloro-2-methoxypyridin-4-yl)-1H-pyrazole-3-carbonyl)piperidine-4-carboxamide], in test [1], the AC50 came out at 0.0457 µM. Moreover, in test [2] (Homo sapiens, UM-UC-9, 144 h), the IC50 was determined as 0.487 µM.

Take `CCN1CC(NC(=O)[C@H]2CCN(C(=O)c3cc(-c4cc(OC)ncc4F)[nH]n3)C3(CC3)C2)CCC12COC2` (stereo partly drawn) [Example 497, (7S)—N-(5-ethyl-2-oxa-5-azaspiro[3.5]nonan-7-yl)-4-(5-(5-fluoro-2-methoxypyridin-4-yl)-1H-pyrazole-3-carbonyl)-4-azaspiro[2.5]octane-7-carboxamide]: the AC50 in test [1] was determined as 0.0877 µM. In test [2] (Homo sapiens, UM-UC-9, 144 h), the IC50 is 0.645 µM.

`COc1cc(-c2cc(C(=O)N3CCC(C(=O)NCc4ccc(Cl)cn4)CC3)n[nH]2)c(Cl)cn1` [Example 120, 1-(5-(5-chloro-2-methoxypyridin-4-yl)-1H-pyrazole-3-carbonyl)-N-((5-chloropyridin-2-yl)methyl)piperidine-4-carboxamide]: the AC50 in test [1] was 0.227 µM. Besides, in test [2] (Homo sapiens, UM-UC-9, 144 h), the IC50 turned out to be 0.766 µM.

As for `COc1cc(-c2cc(C(=O)N3CCC(C(=O)NCc4ccc5n[nH]nc5c4)CC3)n[nH]2)c(Cl)cn1` [Example 197, N-((2H-benzo[d][1,2,3]triazol-5-yl)methyl)-1-(5-(5-chloro-2-methoxypyridin-4-yl)-1H-pyrazole-3-carbonyl)piperidine-4-carboxamide], the AC50 in test [1] was 0.197 µM. Also, the IC50 in test [2] (Homo sapiens, UM-UC-9, 144 h) was found to be 3.93 µM.

For `COc1cc(-c2cc(C(=O)N3[C@@H]4CC[C@H]3C[C@H](C(=O)NC3CCC(O)(C(F)(F)CO)CC3)C4)n[nH]2)c(F)cn1` (stereo partly drawn) [Example 436, (1R,3s,5S)—N-(4-(1,1-difluoro-2-hydroxyethyl)-4-hydroxycyclohexyl)-8-(5-(5-fluoro-2-methoxypyridin-4-yl)-1H-pyrazole-3-carbonyl)-8-azabicyclo[3.2.1]octane-3-carboxamide], in test [1], the AC50 was determined as 0.132 µM. Further, the IC50 in test [2] (Homo sapiens, UM-UC-9, 144 h) is above 10 µM.
